Where two headings read alike, the source gives them in different places.
Assays:
Format in all cases: cell-based
[1] = test system: Daudi human lymphoma cells; assay: Cytotoxicity for lymphoma cells (Daudi); conditions: Homo sapiens, Daudi; for cytotoxicity at 100 µg/mL: 100 μg/ml; for cytotoxicity at 150 µg/mL: 150 μg/ml, read-out: % Cytotoxicity; for cytotoxicity at 200 µg/mL: 200 μg/ml
Description: (§1) In the following examples, tumor cells were treated with varying concentrations of compounds C1, C2, C4 or C5 dissolved in absolute ethanol. To limit any non-specific toxicity, the final concentration of ethanol was not allowed to exceed 0.5%. Stock concentrations of 5 mg/ml or 20 mg/ml were used. Viability of cells was determined in some studies by the trypan blue dye exclusion method. In other studies, cell viability/proliferation activity was determined by MTT assay by using a kit obtained from Promega, (Promega Corp., Madison, Wis. 53711). For this assay, a 100 μl cell suspension containing 5-10^3 monolayer cells or 1×10^5 suspension cells was placed in the wells of a 96-well microtiter plate. After overnight incubation, cells were treated with different concentrations of the test compound. Control wells received vehicle only. After 24, 48, 72 or 96 h of incubation, 50 μl of MTT dye solution was added. After 4 h of incubation at 37° C., 100 μl of solubilization/stop solution was added. After another h of incubation, cells were mixed using a multi-channel pipet and the absorption of the dye color was recorded at 570 nm using a plate reading absorption spectrophotometer.
The viability of the cells was
Compounds C4 and C5 were also tested for toxicity against human lymphoma Daudi cells.

[2] = test system: PC-3 human prostate cancer cells; assay: Cytotoxicity for prostate cancer cell line PC-3 (MTT assay); conditions: read-out: Percent cell kill; for cytotoxicity at 100 µg/mL: 100 μg/ml; for cytotoxicity at 150 µg/mL: 150 μg/ml; for cytotoxicity at 200 µg/mL: 200 μg/ml
Description: as §1
(§2) After the incubation period, viability of the cells was determined by MTT assay (Promega Corp., Madison, Wis. 53711).

[3] = test system: BT-20 human breast cancer cells; assay: Cytotoxicity for breast cancer cell line BT-20 (MTT assay); conditions: read-out: Percent cell kill; for cytotoxicity at 100 µg/mL: 100 μg/ml; for cytotoxicity at 150 µg/mL: 150 μg/ml; for cytotoxicity at 200 µg/mL: 200 μg/ml
Description: as §1, §2

[4] = test system: L1210 mouse leukemia cells; assay: Cytotoxicity for leukemia cells (L1210); conditions: for cytotoxicity at 100 µg/mL / cytotoxicity at 150 µg/mL / cytotoxicity at 200 µg/mL: Mus musculus; for cytotoxicity at 100 µg/mL: 100 μg/ml; for cytotoxicity at 150 µg/mL: 150 μg/ml
Description: as §1
The viability of the cells was […]

[5] = test system: MCF-7 human breast cancer cells; assay: Cytotoxicity for breast cancer cell line MCF-7 (MTT assay); conditions: read-out: Percent cell kill; for cytotoxicity at 100 µg/mL: 100 μg/ml; for cytotoxicity at 150 µg/mL: 150 μg/ml; for cytotoxicity at 200 µg/mL: 200 μg/ml
Description: as §1, §2

[6] = test system: DU-145 human prostate cancer cells; assay: Cytotoxicity for prostate cancer cell line DU-145 (MTT assay); conditions: read-out: Percent cell kill; for cytotoxicity at 100 µg/mL: 100 μg/ml; for cytotoxicity at 150 µg/mL: 150 μg/ml; for cytotoxicity at 200 µg/mL: 200 μg/ml
Description: as §1, §2

**Q.** Which results are given for `CCCCN1C(=O)C(=O)C(=O)N(CCCC)C1=S` [Compound C2, 4,5,6(1H)-pyrimidinetrione, 1,3-dibutyldihydro-2-thioxo]?
**A.** cytotoxicity at 100 µg/mL ([1]; 24 h): 57.5 ± 3%; cytotoxicity at 150 µg/mL ([1]; 24 h, 24 hr): 81.3 ± 4%; cytotoxicity at 200 µg/mL ([1]; 24 h): 93.2 ± 3.3%; cytotoxicity at 100 µg/mL ([1]; 48 h): 41.5%; cytotoxicity at 150 µg/mL ([1]; 48 h, 48 hr): 92%; cytotoxicity at 200 µg/mL ([1]; 48 h): 88%; cytotoxicity at 100 µg/mL ([2]; 24 h, 24 hr): 32.7 ± 6.2%; cytotoxicity at 150 µg/mL ([2]; 24 h, 24 hr): 47 ± 6.7%; cytotoxicity at 200 µg/mL ([2]; 24 h, 24 hr): 57.5 ± 3.5%; cytotoxicity at 100 µg/mL ([2]; 48 h, 48 hr): 46.2 ± 4.1%; cytotoxicity at 150 µg/mL ([2]; 48 h, 48 hr): 70.7 ± 6%; cytotoxicity at 200 µg/mL ([2]; 48 h, 48 hr): 81.5 ± 3.1%; cytotoxicity at 100 µg/mL ([2]; 72 h, 72 hr): 51.5 ± 6.5%; cytotoxicity at 150 µg/mL ([2]; 72 h, 72 hr): 77.7 ± 4.6%; cytotoxicity at 200 µg/mL ([2]; 72 h, 72 hr): 88.5 ± 5.2%; cytotoxicity at 100 µg/mL ([2]; 96 h, 96 hr): 75 ± 1%; cytotoxicity at 150 µg/mL ([2]; 96 h, 96 hr): 88.7 ± 3.2%; cytotoxicity at 200 µg/mL ([2]; 96 h, 96 hr): 95 ± 3.6%; cytotoxicity at 100 µg/mL ([3]; BT-20, 24 h, 24 hr): 29.8 ± 6.8%; cytotoxicity at 150 µg/mL ([3]; BT-20, 24 h, 24 hr): 30 ± 4.4%; cytotoxicity at 200 µg/mL ([3]; BT-20, 24 h, 24 hr): 30.3 ± 2.9%; cytotoxicity at 100 µg/mL ([3]; BT-20, 48 h, 48 hr): 51.8 ± 1.9%; cytotoxicity at 150 µg/mL ([3]; BT-20, 48 h, 48 hr): 50 ± 1.7%; cytotoxicity at 200 µg/mL ([3]; BT-20, 48 h, 48 hr): 55.5 ± 8.9%; cytotoxicity at 100 µg/mL ([3]; BT-20, 72 h, 72 hr): 57.5 ± 2.6%; cytotoxicity at 150 µg/mL ([3]; BT-20, 72 h, 72 hr): 60.8 ± 2.8%; cytotoxicity at 200 µg/mL ([3]; BT-20, 72 h, 72 hr): 68.5 ± 3.4%; cytotoxicity at 100 µg/mL ([3]; BT-20, 96 h, 96 hr): 99.9%; cytotoxicity at 150 µg/mL ([3]; BT-20, 96 h, 96 hr): 99.9%; cytotoxicity at 200 µg/mL ([3]; BT-20, 96 h, 96 hr): 99.9%; % Cytotoxicity ([4]; 200 μg/ml, 24 hr, 1440 min): > 58%; cytotoxicity at 100 µg/mL ([4]; L1210, 24 h, 24 hr): 33.2 ± 2%; cytotoxicity at 150 µg/mL ([4]; L1210, 24 h, 24 hr): 50 ± 4.1%; cytotoxicity at 200 µg/mL ([4]; L1210, 24 h, 200 μg/ml, 24 hr): 58.7 ± 2.6%; cytotoxicity at 100 µg/mL ([4]; L1210, 48 h, 48 hr): 29 ± 3.5%; cytotoxicity at 150 µg/mL ([4]; L1210, 48 h, 48 hr): 53.7 ± 2.5%; cytotoxicity at 200 µg/mL ([4]; L1210, 48 h, 200 μg/ml, 48 hr): 72.5 ± 2.4%; cytotoxicity at 100 µg/mL ([5]; MCF7, 24 h, 24 hr): 9 ± 7%; cytotoxicity at 150 µg/mL ([5]; MCF7, 24 h, 24 hr): 26.3 ± 7.9%; cytotoxicity at 200 µg/mL ([5]; MCF7, 24 h, 24 hr): 40 ± 10.6%; cytotoxicity at 100 µg/mL ([5]; MCF7, 48 h, 48 hr): 16.3 ± 4.8%; cytotoxicity at 150 µg/mL ([5]; MCF7, 48 h, 48 hr): 43.3 ± 7.3%; cytotoxicity at 200 µg/mL ([5]; MCF7, 48 h, 48 hr): 70.3 ± 7.8%; cytotoxicity at 100 µg/mL ([5]; MCF7, 72 h, 72 hr): 33.3 ± 5.4%; cytotoxicity at 150 µg/mL ([5]; MCF7, 72 h, 72 hr): 61 ± 5.6%; cytotoxicity at 200 µg/mL ([5]; MCF7, 72 h, 72 hr): 81.3 ± 3.2%; cytotoxicity at 100 µg/mL ([5]; MCF7, 96 h, 96 hr): 87.7 ± 0.6%; cytotoxicity at 150 µg/mL ([5]; MCF7, 96 h, 96 hr): 97 ± 0.8%; cytotoxicity at 200 µg/mL ([5]; MCF7, 96 h, 96 hr): 94.3 ± 2.1%; cytotoxicity at 100 µg/mL ([6]; DU-145, 24 h, 24 hr): 0%; cytotoxicity at 150 µg/mL ([6]; DU-145, 24 h, 24 hr): 0%; cytotoxicity at 200 µg/mL ([6]; DU-145, 24 h, 24 hr): 0%; cytotoxicity at 100 µg/mL ([6]; DU-145, 48 h, 48 hr): 0%; cytotoxicity at 150 µg/mL ([6]; DU-145, 48 h, 48 hr): 4.2 ± 3.9%; cytotoxicity at 200 µg/mL ([6]; DU-145, 48 h, 48 hr): 20 ± 3%; cytotoxicity at 100 µg/mL ([6]; DU-145, 72 h, 72 hr): 0%; cytotoxicity at 150 µg/mL ([6]; DU-145, 72 h, 72 hr): 9.2 ± 5.3%; cytotoxicity at 200 µg/mL ([6]; DU-145, 72 h, 72 hr): 36.7 ± 2.1%; cytotoxicity at 100 µg/mL ([6]; DU-145, 96 h, 96 hr): 10 ± 6.1%; cytotoxicity at 150 µg/mL ([6]; DU-145, 96 h, 96 hr): 25.2 ± 7.4%; cytotoxicity at 200 µg/mL ([6]; DU-145, 96 h, 96 hr): 43.7 ± 4.3%

From patent US5869494A, “Uses for barbituric acid analogs” (priority 1997, dated 1999)
